Laboratory results reported in patent US20250032489A1, “MIXED LINEAGE KINASE INHIBITORS AND METHODS OF USE” (The U.S.A., as represented by the Secretary, Department of …, priority 2022, published 2025).
Read-outs that look alike come from different tables or passages of the source.

Legend:
[1] = biological target: LZK (Homo sapiens, UniProt O43283, Q240S); test: Immunoblot of downstream JNK phosphorylation in CAL33 cells with dox-inducible LZK; assay type: cell-based; conditions: in the presence of inhibitor
Experimental: (§1) The ViraPower HiPerform T-REx Gateway Expression System (Invitrogen) was used to generate cells with tetracycline-inducible expression of LZK. […] Cell lines were generated by antibiotic selection (blasticidin [Gibco] and geneticin [Gibco]). Doxycycline (Sigma-Aldrich) was used at 1 μg/mL to induce LZK expression.
(§2) After appropriate treatment time, cells were washed with ice-cold phosphate-buffered saline without Ca and Mg (Quality Biological) and then lysed on ice with RIPA buffer ([…], 1.0% IGEPAL® CA-630, 0.5% sodium deoxycholate, 0.1% SDS, 50 mM Tris, pH 8.0) (Sigma-Aldrich) supplemented with protease inhibitor tablet (Sigma-Aldrich) and phosphatase inhibitor cocktails 2 and 3 (Sigma-Aldrich) followed by centrifugation at 15,000 rpm for 10 minutes at 4° C. Protein concentrations were determined from the cell lysate by using 660 nm Protein Assay Reagent (Pierce). Cell extracts were denatured, subjected to SDS-PAGE, transferred to PVDF membranes (Bio-Rad) and blocked for 2 hours using 5% bovine serum albumin (BSA) in phosphate-buffered saline and 0.1% Tween® 20 (PBS-T). The membranes were incubated with the specific antibodies overnight in 5% BSA/PBST at 4° C. followed by a 1 hour incubation with the appropriate horseradish peroxidase-conjugated secondary antibodies and signal was detected by chemiluminescence (Thermo Fisher).

[2] = biological target: T1, LZK (Homo sapiens (Human), UniProt O43283); test: as above; assay type: cell-based
Experimental: as §1, §2

[3] = test system: ESCC with the 3q amplicon (KYSE30, and KYSE70 cells); test: MTS assay in ESCC cells; assay type: cell-based; conditions: compared to control ESCC cells lacking amplified LZK (KYSE410 and OE19)
Experimental: A Cell Titer 96 AQueous One Solution Cell Proliferation Assay (Promega) was used for MTS assays following the manufacturer's protocol. […] Doxycycline was added where appropriate, and cells were incubated for 72 hours. MTS was added, cells were incubated for two hours, and absorbance was measured at 490 nm using iMark™ Microplate Absorbance Reader (Bio-Rad). Graphs display percent cell viability relative to the DMSO-treated control sample. EC50 values were determined using GraphPad Prism 8.

[4] = test system: 3q-amplified HNSCC PDX tumors; test: HNSCC PDX mouse model with amplified MAP3K13 (LZK); assay type: in vivo
Experimental: Tumor pieces at approximately 2×2×2 mm^3 from an HNSCC patient containing amplified MAP3K13 were implanted subcutaneously with Matrigel (Corning) in the mice according to the SOP50101 Implantation and Cryopreservation of Tissue for PDX Generation protocol from the NIH Patient-Derived Models Repository (PDMR). Five NSG mice were used for initial implantation of the cryopreserved tumor fragments. Body weights and tumor size were measured twice weekly. […] For the efficacy study, passage one of the fresh PDX tumor fragments were implanted into NSG mice using the protocol stated previously. […] Body weights and tumor sizes were measured twice weekly. At the endpoint of each study, tumors were harvested, cleaned, weighed, and photographed for analysis.

[5] = test system: BEAS-2B cells; test: Colony formation assay; assay type: cell-based, human; conditions: 200 nM, 14 days, cells lacking amplified MAP3K13
Experimental: (§3) Crystal violet assays were used to assess relative cell growth and survival after treatment with specific compounds. In general, cells were plated in triplicate in 12-well plates for 24 hours before drug treatments were added using 10% FBS media. The plates were incubated for 14 days, with the media and drug being replaced every 48 hours. The cells were then washed with phosphate-buffered saline and fixed in ice-cold methanol before being stained with 0.5% crystal violet (Sigma-Aldrich) in 25% methanol. Images were taken using a ChemiDoc MP Imaging System (Bio Rad), and for quantification, the crystal violet stain was dissolved in 33% acetic acid, incubated for 20 minutes with shaking, and read at 595 nm using iMark™ Microplate Absorbance Reader (Bio-Rad). Graphs display percent colony formation relative to the DMSO-treated control sample.

[6] = test system: BICR56 cells; test: MTS cell viability assay; assay type: cell-based; conditions: 72 hours MTS
Experimental: A Cell Titer 96 AQueous One Solution Cell Proliferation Assay (Promega) was used for MTS assays following the manufacturer's protocol. […] MTS was added, cells were incubated for two hours, and absorbance was measured at 490 nm using iMark™ Microplate Absorbance Reader (Bio-Rad). Graphs display percent cell viability relative to the DMSO-treated control sample. EC50 values were determined using GraphPad Prism 8.

[7] = test system: LZK; test: Immunoblot of JNK signaling in 293T cells overexpressing LZK; assay type: cell-based; conditions: one-hour treatment
Experimental: LZK cDNA was prepared from RNA extracted from 293T cells, attB flanking regions were added by PCR, and the BP Clonase reaction was used to insert LZK into pDONR221. From here, the Invitrogen Gateway system was used for cloning into destination vectors. FLAG-tagged (pReceiver-M12, GeneCopoeia) destination vector was conveed into Gateway destination vector for use in transient overexpression assays. The pLenti6.3/TO/V5-DEST vector was used to generate stable overexpression. The drug-resistant construct for LZK was a Q240S mutation that was introduced using a Site-Directed Mutagenesis Kit (Stratagene). The oligonucleotides are listed below in Table 18. 293T cells were transiently transfected using Lipofectamine 2000 (Invitrogen), according to the manufacturer's protocol, with OptiMEM (Gibco). […]
Generally, cells were plated in six-well or 35-mm plates for 24 hours, after which doxycycline was added or treatment with specific inhibitor was administered using 5% FBS media for 48 hours. […] Protein concentrations were determined from the cell lysate by using 660 nm Protein Assay Reagent (Pierce). […] The membranes were incubated with the specific antibodies overnight in 5% BSA/PBST at 4° C. followed by a 1 hour incubation with the appropriate horseradish peroxidase-conjugated secondary antibodies and signal was detected by chemiluminescence (Thermo Fisher).

[8] = test system: c-MYC; test: Western blot of c-MYC abundance; assay type: cell-based
Experimental: as §2, with “Generally, cells were plated in six-well or 35-mm plates for 24 hours, after which doxycycline was added or treatment with specific inhibitor was administered using 5% FBS media for 48 hours. After” for “After”

[9] = test system: LK2 cells; test: Colony formation assay; assay type: cell-based; conditions: 500 nM
Experimental: as §3

[10] = test system: CAL33 cells; test: Colony formation assay; assay type: cell-based; conditions: 200 nM, 14 days
Experimental: as §3

[11] = test system: BICR56 cells; test: Colony formation assay; assay type: cell-based; conditions: 200 nM, 14 days
Experimental: as §3

[12] = test system: NCI-H520 cells; test: Colony formation assay; assay type: cell-based; conditions: 500 nM
Experimental: as §3

[13] = test system: MSK921 cells; test: Colony formation assay; assay type: cell-based; conditions: 200 nM, 14 days, cells lacking amplified MAP3K13
Experimental: as §3

[14] = test system: HNSCC PDX tumors lacking amplified LZK; test: HNSCC PDX mouse models that lack amplified LZK; assay type: in vivo; conditions: 50 mg/kg, q.d., five days on/two days off
[15] = test system: CAL33 xenografts; test: HNSCC CAL33 xenograft mouse model; conditions: 100 mg/kg
[16] = biological target: T1, LZK; test: In vitro kinase assay, LZK phosphorylation of MKK7; assay type: biochemical
Experimental: The assay was performed with 100 μM ATP at 37° C. for 30 minutes. Following the addition of 4× reducing SDS sample buffer, proteins were resolved by sodium dodecyl sulfate-polyacrylamide gel electrophoresis (SDS-PAGE) and immunoblot analysis was performed as stated previously.

[17] = test system: OVCAR5 cells; test: Colony formation assay; assay type: cell-based
Experimental: as §3

[18] = biological target: T1, LZK; test: Phospho-JNK ELISA in doxycycline-induced CAL33 cells expressing LZK; assay type: cell-based
Excerpt: The ViraPower HiPerform T-REx Gateway Expression System (Invitrogen) was used to generate cells with tetracycline-inducible expression of LZK. In brief, wild-type (WT) or drug-resistant mutant (Q240S) LZK (cloned into pLenti6.3/TO/V5-DEST vector) and pLenti3.3/TR (for tetracycline repressor expression) were transfected into 293FT cells using Lipofectamine 2000 to generate lentiviral stock. Cell lines were generated by antibiotic selection (blasticidin [Gibco] and geneticin [Gibco]). Doxycycline (Sigma-Aldrich) was used at 1 μg/mL to induce LZK expression.
A PathScan® Phospho-SAPK/JNK (Thr183/Tyr185) Sandwich ELISA Assay (Cell Signaling Technology) was used for ELISA assays following the manufacturer's protocol. In general, 500,000 cells were plated and treated with doxycycline the following day where appropriate and incubated at 37° C. for 48 hours. Cells were treated with the drug compound or control in 5% FBS media for 1 hour. After appropriate treatment time, cells were lysed on ice with 1× Cell Lysis Buffer (Cell Signaling Technology) supplemented with phosphatase and protease inhibitors (Sigma). Each diluted cell lysate was added to Phospho-SAPK/JNK (Thr183/Tyr185)Rabbit mAb Coated microwells in triplicate and incubated overnight at 4° C. Samples were treated with the following antibodies and incubated at 37° C. for 1 hour and 30 minutes, respectively: Detection Antibody and HRP-Linked secondary antibody. Samples were washed between treatments using 1× Wash Buffer according to the manufacturer's protocol. TMB substrate was added to each well and incubated at 37° C. for 10 minutes. Following this, STOPsolution was added to each well and absorbance was measured at 450 nm using iMark™ Microplate Absorbance Reader (Bio-Rad). Graphs display relative phospho-JNK levels.

[19] = test system: ESCC cells with the 3q amplicon; test: Colony formation assay in ESCC cells; assay type: cell-based; conditions: drug resistant mutant form of LZK
Excerpt: Crystal violet assays were used to assess relative cell growth and survival after treatment with specific compounds. […] Graphs display percent colony formation relative to the DMSO-treated control sample.

[20] = biological target: DLK (Homo sapiens (Human), UniProt Q12852); test: KD determination, Eurofins DiscoveRx Kd-Elect; assay type: binding
Experimental: (§4) Substituents were varied to improve binding affinity to LZK and selectivity over DLK. KD values were measured by Eurofins DiscoveRx using the Kd-Elect system. Parallel artificial membrane permeability assay (PAMPA) values were measured by Cyprotex.
(§5) KD values were calculated with a standard dose-response curve using the Hill equation: […]
(§6) The Hill Slope was set to −1. Curves were fitted using a non-linear least square fit with the Levenberg-Marquardt algorithm.

[21] = biological target: T1, LZK; test: KD determination, Eurofins DiscoveRx Kd-Elect; assay type: binding
Experimental: as §4, §5, §6

[22] = b.i.d., five days on/two days off

T1 sequence (O43283 whole entry): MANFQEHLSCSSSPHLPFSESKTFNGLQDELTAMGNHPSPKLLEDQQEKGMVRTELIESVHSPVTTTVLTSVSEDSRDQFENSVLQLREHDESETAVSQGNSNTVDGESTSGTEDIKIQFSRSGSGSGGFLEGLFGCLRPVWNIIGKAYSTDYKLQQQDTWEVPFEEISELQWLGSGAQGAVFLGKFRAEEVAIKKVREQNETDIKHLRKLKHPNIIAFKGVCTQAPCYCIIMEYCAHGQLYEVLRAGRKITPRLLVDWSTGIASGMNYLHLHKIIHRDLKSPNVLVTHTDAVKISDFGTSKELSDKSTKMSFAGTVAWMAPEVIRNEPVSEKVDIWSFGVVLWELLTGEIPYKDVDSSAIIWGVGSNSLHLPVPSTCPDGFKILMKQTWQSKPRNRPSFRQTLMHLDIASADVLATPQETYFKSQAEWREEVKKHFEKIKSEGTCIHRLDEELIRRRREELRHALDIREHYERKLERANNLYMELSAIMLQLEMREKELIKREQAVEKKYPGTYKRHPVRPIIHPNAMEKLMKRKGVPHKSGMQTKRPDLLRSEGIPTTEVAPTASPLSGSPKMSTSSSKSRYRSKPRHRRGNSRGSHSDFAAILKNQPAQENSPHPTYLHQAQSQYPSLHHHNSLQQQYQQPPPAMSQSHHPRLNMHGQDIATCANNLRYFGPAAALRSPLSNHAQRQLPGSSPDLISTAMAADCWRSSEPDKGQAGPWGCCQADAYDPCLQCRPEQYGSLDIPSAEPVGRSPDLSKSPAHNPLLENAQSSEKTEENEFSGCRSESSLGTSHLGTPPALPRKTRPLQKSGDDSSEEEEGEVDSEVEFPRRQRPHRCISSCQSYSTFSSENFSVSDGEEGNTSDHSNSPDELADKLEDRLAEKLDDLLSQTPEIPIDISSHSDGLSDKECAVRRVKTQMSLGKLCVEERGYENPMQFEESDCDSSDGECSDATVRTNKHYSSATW
LZK (Homo sapiens, UniProt O43283, Q240S), sequence (O43283 whole entry Q240S): as the sequence (O43283 whole entry) above, with Q240S counted along it
DLK, sequence (Q12852 whole entry): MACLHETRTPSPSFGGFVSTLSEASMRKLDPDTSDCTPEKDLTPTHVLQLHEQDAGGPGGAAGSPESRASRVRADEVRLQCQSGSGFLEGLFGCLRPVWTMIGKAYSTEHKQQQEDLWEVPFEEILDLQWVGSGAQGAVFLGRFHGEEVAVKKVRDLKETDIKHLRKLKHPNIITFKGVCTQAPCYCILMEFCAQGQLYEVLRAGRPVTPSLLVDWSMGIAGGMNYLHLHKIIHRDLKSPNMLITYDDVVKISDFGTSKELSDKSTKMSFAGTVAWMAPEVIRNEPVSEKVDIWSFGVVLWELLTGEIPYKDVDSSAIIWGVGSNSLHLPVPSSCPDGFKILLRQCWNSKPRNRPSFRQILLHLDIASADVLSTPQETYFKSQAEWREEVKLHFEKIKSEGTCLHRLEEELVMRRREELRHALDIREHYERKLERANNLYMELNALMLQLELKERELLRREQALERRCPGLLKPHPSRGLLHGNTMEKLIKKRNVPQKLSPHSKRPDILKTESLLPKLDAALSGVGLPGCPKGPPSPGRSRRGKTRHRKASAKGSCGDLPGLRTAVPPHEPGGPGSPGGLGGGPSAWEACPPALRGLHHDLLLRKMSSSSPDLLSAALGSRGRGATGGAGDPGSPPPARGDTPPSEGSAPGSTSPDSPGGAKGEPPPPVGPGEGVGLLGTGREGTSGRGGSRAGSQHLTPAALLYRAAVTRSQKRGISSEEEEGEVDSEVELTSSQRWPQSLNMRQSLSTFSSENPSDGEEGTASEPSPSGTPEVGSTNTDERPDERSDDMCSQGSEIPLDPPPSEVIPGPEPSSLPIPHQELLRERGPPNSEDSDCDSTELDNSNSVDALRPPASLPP

SMILES: N#Cc1ccnc(Nc2cc(C3CCN(C4COC4)CC3)cc(N3CCC(F)(F)C3)n2)c1 [GNE-3511]
- JNK signaling with LZK^Q240S drug-resistant mutant expression [1]: maintained catalytic activity
- duration of JNK pathway inactivation ([2]; 250 nM): up to 72 hours
- time at which LZK activity toward JNK was inhibited ([2]; 250 nM): ≤ 15 min
- inhibition of LZK activity in cells (downstream JNK phosphorylation) ([2]; Western blot): potent LZK inhibitor in cells
- sensitivity (viability) [3]: sensitive
- body weights of the mice ([4]; 50 mg/kg daily): no effect on body weights
- mice with no detectable tumors ([4]; 50 mg/kg, n=10): 3 mice
- tumor growth ([4]; 50 mg/kg, q.d., five days on/two days off): significantly suppress HNSCC tumor growth in vivo with almost complete tumor regression
- reduction in colony formation [5]: minor reduction in colony formation
- IC50 [6]: 410 ± 59.6 nM
- specificity of LZK inhibition (rescue of JNK signaling by LZK^Q240S) [7]: specifically inhibits LZK
- c-MYC levels with LZK^Q240S expression ([8]; CAL33 cells treated with inhibitor): rescued loss in c-MYC levels
- c-MYC levels ([8]; CAL33 cells, 500 nM, within the first hour, maintained for 72 hours): reduction in c-MYC levels
- reduction in colony formation [9]: 45%
- reduction in colony formation [10]: ≥ 80%
- reduction in colony formation [11]: ≥ 80%
- reduction in colony formation [12]: 55%
- reduction in colony formation [13]: minor reduction in colony formation
- tumor volumes [14]: no decrease in tumor volumes
- cleaved caspase-3 expression (IHC) in tumors [15]: increase in cleaved caspase-3 expression
- tumor growth [15]: tumor growth was suppressed
- body weight [15, 22]: decreases in body weight
- toxicity [15, 22]: terminated early due to toxicity
- in vitro phosphorylation of MKK7 [16]: decreased in vitro phosphorylation of MKK7

SMILES: Cc1cnc(Nc2cc(C3CCN(CC4CC4)CC3)cc(N3CCC(F)(F)C3)n2)cn1 [compound 161]
- sensitivity (colony formation) [17]: sensitive
- dose-dependent inhibition of LZK [18]: dose-dependent inhibition
- sensitivity (colony formation) of ESCC cells expressing LZK^Q240S [19]: resistant to compound 161
- Kd [20]: 4.3 nM
- Ratio (LZK/DLK) ([21]; ratio of LZK Kd to DLK Kd): 0.8
- Kd ([21]; read-out: Kd values): 3.3 nM
- Kd ([21]; read-out: LZK KD): 3.3 nM
